Where a name gives a salt, the structure may show the parent alone.
Columns and labels:
C57BL/KsJ-db/db mice = assay: Blood sugar and triglyceride lowering in db/db mice; type: in vivo; conditions: 3 mg/kg oral gavage daily for 6 days
Text: Mutation in colonies of laboratory animals and different sensitivities to dietary regimens have made the development of animal models with non-insulin dependent diabetes and hyperlipidemia associated with obesity and insulin resistance possible. Genetic models such as db/db and ob/ob (Diabetes, (1982) 31(1): 1-6) mice and zucker fa/fa rats have been developed by the various laboratories for understanding the pathophysiology of disease and testing the efficacy of new antidiabetic compounds (Diabetes, (1983) 32: 830-838; Annu. Rep. Sankyo Res. Lab. (1994). 46: 1-57). The homozygous animals, C57 BL/KsJ-db/db mice developed by Jackson Laboratory, US, are obese, hyperglycemic, hyperinsulinemic and insulin resistant (J. Clin. Invest., (1990) 85 : 962-967), whereas heterozygous are lean and normoglycemic. In db/db model, mouse progressively develops insulinopenia with age, a feature commonly observed in late stages of human type II diabetes when blood sugar levels are insufficiently controlled. The state of pancreas and its course vary according to the models. Since this model resembles that of type II diabetes mellitus, the compounds of the present invention will be tested for blood sugar and triglycerides lowering activities.
Male C57BL/KsJ-db/db mice of 8 to 14 weeks age, having body weight range of 35 to 60 grams, bred at Dr. Reddy's Research Foundation (DRF) animal house, were used in the experiment. The mice are provided with standard feed (National Institute of Nutrition (NIN), Hyderabad, India) and acidified water, ad libitum. The animals having more than 350 mg/dl blood sugar will be used for testing. The number of animals in each group was 4.
Test compounds are suspended on 0.25% carboxymethyl cellulose and administered to test group at a dose of 0.1 mg to 30 mg/kg through oral gavage daily for 6 days. The control group receives vehicle (dose 10 ml/kg). On 6th day the blood samples will be collected one hour after administration of test compounds/vehicle for assessing the biological activity.
The random blood sugar and triglyceride levels can be measured by collecting blood (100 μl) through orbital sinus, using heparinised capillary in tubes containing EDTA which was centrifuged to obtain plasma. The plasma glucose and triglyceride levels can be measured spectrometrically, by glucose oxidase and glycerol-3-PO4 oxidase/peroxidse enzyme (Dr. Reddy's Lab. Diagnostic Division Kits, Hyderabad, India) methods respectively.
The blood sugar and triglycerides lowering activities of the test compound are calculated according to the formula.
1. Percent reduction in Blood sugar/triglycerides/total cholesterol will be calculated according to the formula: […]

hPPARα = target: T1, hPPARα (Homo sapiens, UniProt Q07869); assay: Determination of hPPARα activity (GAL4 fusion luciferase reporter in HEK-293 cells); type: cell-based; conditions: compound concentration 50 μM
T1 construct: expressed in transfected cells; host or cells: HEK-293
T1 sequence (Q07869 239-466 limits assumed): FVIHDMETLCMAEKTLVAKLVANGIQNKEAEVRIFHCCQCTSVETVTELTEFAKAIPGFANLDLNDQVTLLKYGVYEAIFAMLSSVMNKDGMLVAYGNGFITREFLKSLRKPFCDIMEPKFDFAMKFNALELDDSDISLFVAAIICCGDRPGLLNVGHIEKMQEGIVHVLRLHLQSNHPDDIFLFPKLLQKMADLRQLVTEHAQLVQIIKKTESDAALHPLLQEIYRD
Experimental: a) Determination of hPPARα Activity
Ligand binding domain of hPPARα was fused to DNA binding domain of Yeast transcription factor Gal 4 in eucaryotic expression vector. Using superfect (Qiagen, Germany) as transfecting reagent HEK-293 cells are transfected with this plasmid and a reporter plasmid harboring the luciferace gene driven by a GAL4 specific promoter. Compound can be added at different concentrations after 42 hrs of transfection and incubated overnight. Luiciferase activity as a function of compound binding/activation capacity of PPARα will be measured using Packard Luclite kit (Packard, USA) in Top Count (Ivan Sadowsi, Brendan Bell, Peter Broag and Melvyn Hollis. Gene. 1992. 118: 137-141; Superfect Transfetion Reagent Handbook February 1997. Qiagen, Germany.

Swiss albino mice = assay: Plasma triglyceride and total cholesterol lowering activity in Swiss albino mice and guinea pigs; type: in vivo; conditions: 10 mg/kg orally for 6 days; species not named
Experimental: c) Plasma Triglyceride and Total Cholesterol Lowering Activity in Swiss Albino Mice and Gunie Pigs
Male Swiss albino mice (SAM) and male Guinea pigs were obtained from NIN and housed in DRF animal house. All these animals are maintained under 12 hour light and dark cycle at 25±1° C. Animals were given standard laboratory chow (NIN, Hyderabad, India) and water, ad libitum. SAM of 20-25 g body weight range and Guinea pigs of 500-760 g body weight range are used (Oliver, P., Plancke, M. O., Marzin, D., Clavey, V., Sauzieres, J and Fruchatt, J. C. Effects of fenofibrate, gemfibrozil and nicotinic acid on plasma lipoprotein levels in normal and hyperlipidemic mice. Atherosclerosis. 1988. 70 : 107-114).
The test compounds were administered orally to Swiss albino mice at 0.3 to 30 mg/kg/day dose for 6 days. Control mice are treated with vehicle (0.25% Carboxymethylcellulose; dose 10 ml/kg). The test compounds are administered orally to Guinea pigs at 0.3 to 30 mg/kg/day dose for 6 days. Control animals are treated with vehicle (0.25% Carboxymethylcellulose; dose 5 ml/kg).
The blood samples were collected in fed state 1 hour after drug administration on 0 and 6 day of treatment The blood was collected from the retro-orbital sinus through heparinised capillary in EDTA containing tubes. After centrifugation, plasma sample was separated for triglyceride and total cholesterol (Wieland, O. Methods of Enzymatic analysis. Bergermeyer, H. O., Ed., 1963. 211-214; Trinder, P. Ann. Clin. Biochem. 1969. 6: 24-27). Measurement of plasma triglyceride were done using commercial kits (Dr. Reddy's Diagnostic Division, Hyderabad, India).
(§1) 1. Percent reduction in Blood sugar/triglycerides/total cholesterol will be calculated according to the formula:
(§2) [formula] • OC=Zero day control group value • OT=Zero day treated group value • TC=Test day control group value • TT=Test day treated group value

hPPARγ = target: T2, hPPARγ (Homo sapiens, UniProt P37231); assay: Determination of hPPARγ activity (GAL4 fusion luciferase reporter in HEK-293 cells); type: cell-based; conditions: compound concentration 1 μM
T2 construct: expressed in transfected cells; host or cells: HEK-293
T2 sequence (P37231 238-503 limits assumed): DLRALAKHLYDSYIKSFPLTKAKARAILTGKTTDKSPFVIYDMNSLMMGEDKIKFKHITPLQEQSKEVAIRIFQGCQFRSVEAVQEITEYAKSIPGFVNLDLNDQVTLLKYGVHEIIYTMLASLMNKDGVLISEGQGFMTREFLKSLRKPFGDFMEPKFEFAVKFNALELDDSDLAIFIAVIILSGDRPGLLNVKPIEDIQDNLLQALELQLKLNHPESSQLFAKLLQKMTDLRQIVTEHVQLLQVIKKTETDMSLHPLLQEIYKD
Experimental: b) Determination of hPPARγ Activity
Ligand binding domain of hPPARγ is fused to DNA binding domain of Yeast transcription factor GAL4 in eucaryotic expression vector. Using lipofectamine (Gibco BRL, USA) as transfecting reagent HEK-293 cells are transfected with this plasmid and a reporter plasmid harboring the luciferase gene driven by a GAL4 specific promoter. Compound can be added at 1 μM concentration after 48 hrs of transfection and incubated overnight Luciferase activity as a function of drug binding/activation capacity of PPARγ1 will be measured using Packard Luclite kit (Packard, USA) in Packard Top Cout (Ivan Sadowski, Brendan Bell, Peter Broag and Melvyn Hollis. Gene. 1992. 118: 137-141; Guide to Eukaryotic Transfections with Cationic Lipid Reagents. Life Technologies, GIBCO BRL, USA).

[1] = test system: hypercholesterolemic Sprague Dawley rats; assay: Plasma triglyceride and cholesterol lowering activity in hypercholesterolemic rat models; type: in vivo; conditions: 10 mg/kg orally for 3 days; for HDL (%) ↑: increase; for Total Cholesterol (%) ↓ / Triglyceride (%) ↓ / LDL (%) ↓ / VLDL (%) ↓: reduction; for LDL (%) ↓: LDL calculated from total cholesterol; for LDL (%) ↓ / VLDL (%) ↓: HDL and triglyceride; for VLDL (%) ↓: VLDL calculated from total cholesterol
Experimental: b) Plasma Triglyceride and Cholesterol Lowering Activity in Hypercholesterolemic Rat Models
Male Sprague Dawley rats (NIN stock) were bred in DRF animal house. Animals were maintained under 12 hour light and dark cycle at 25±1° C. Rats of 180-200 gram body weight range were used for the experiment. Animals are made hypercholesterolemic by feeding 2% cholesterol and 1% sodium cholate mixed with standard laboratory chow [National Institute of Nutrition (NIN), Hyderabad, India] […] for 6 days. Throughout the experimental period the animals were maintained on the same diet (Petit, D., Bonnefis, M. T., Rey, C and Infante, R. Effects of ciprofibrate on liver lipids and lipoprotein synthesis in normo- and hyperlipidemic rats. Atherosclerosis. 1988. 74 : 215-225).
The test compounds can be administered orally at a dose 0.1 to 30 mg/kg/day for 3 days. Control group was treated with vehicle alone (0.25% Carboxymethylcellulose; dose 10 ml/kg).
The blood samples were collected in fed state 1 hour after drug administration on 0 and 3 day of compound treatment. The blood was collected from the retro-orbital sinus through heparinsed capillary in EDTA containing tubes. After centrifugation, plasma sample was separated for total cholesterol, HDL and triglyceride estimations. Measurement of plasma, triglyceride, total cholesterol and HDL are were done using commercial kits (Dr. Reddy's Laboratory, Diagnostic Division, India). LDL and VLDL cholesterol were calculated from the data obtained for total cholesterol, HDL and triglyceride. The reduction of various parameters examined are calculated according to the formula.
as §1, §2
2. LDL and VLDL cholesterol levels will be calculated according to the formula:
[formula] VLDL cholesterol in mg/dl=[Total cholesterol−HDL cholesterol−LDL cholesterol]mg/dl.

## CCOC(Cc1ccc(NCCCN2CCOc3ccccc32)cc1)C(=O)O (stereo not shown) [Example 3, 3-[4-{3-(3,4-Dihydro-2H-benzo[b][1,4]oxazin-4-yl)propylamino}phenyl]-2-ethoxypropanoic acid arginine salt]
C57BL/KsJ-db/db mice
  Reduction in Blood Glucose Level (%): 33%
  Triglyceride Lowering (%): 29%
hPPARα
  PPARα: 4.7
Swiss albino mice
  Triglyceride Lowering (%): 70%
hPPARγ
  PPARγ: 3.0
[1]
  HDL (%) ↑: 254%
  Total Cholesterol (%) ↓: 69%
  Triglyceride (%) ↓: 77%
  LDL (%) ↓: 80%
  VLDL (%) ↓: 77%

## CCCCCCCN(CCN1C(=O)COc2ccccc21)c1ccc(CC(OCC)C(=O)O)cc1 (stereo not shown) [Example 6, 3-[4-N-Heptyl-N-{2-(3-oxo-3,4-dihydro-2H-benzo[b][1,4]oxazin-4-yl)ethylamino}phenyl]-2-ethoxypropanoic acid arginine salt]
Swiss albino mice
  Triglyceride Lowering (%): 27%

## CCCCCCCN(CC(=O)N1CCOc2ccccc21)Cc1ccc(CC(OCC)C(=O)O)cc1 (stereo not shown) [Example 9, 2-Ethoxy-3-[4-{N-heptyl-N-(2-(3,4-dihydro-2H-benzo[b]oxazin-4-yl)-2-oxoethyl)aminomethyl}phenyl]propanoic acid arginine salt]
hPPARα
  PPARα: 4.6
hPPARγ
  PPARγ: 6.2

## CCOC(Cc1cccc(NCCCN2CCOc3ccccc32)c1)C(=O)O (stereo not shown) [Example 15, 3-[3-{3-(3,4-Dihydro-2H-benzo[b][1,4]oxazin-4-yl)propylamino}phenyl]-2-ethoxypropanoic acid arginine salt]
Swiss albino mice
  Triglyceride Lowering (%): 43%

## CCOC(Cc1ccc(NCCCN2CCOc3cc(F)ccc32)cc1)C(=O)O (stereo not shown) [Example 18, 3-[4-{3-(7-Fluoro-3,4-dihydro-2H-benzo[b][1,4]oxazin-4-yl)propylamino}phenyl]-2-ethoxypropanoic acid arginine salt]
C57BL/KsJ-db/db mice
  Reduction in Blood Glucose Level (%): 16%
  Triglyceride Lowering (%): 35%
hPPARα
  PPARα: 4.4
Swiss albino mice
  Triglyceride Lowering (%): 61%
hPPARγ
  PPARγ: 1.2
[1]
  HDL (%) ↑: 260%
  Total Cholesterol (%) ↓: 64%
  Triglyceride (%) ↓: 77%
  LDL (%) ↓: 74%
  VLDL (%) ↓: 77%

## CCOC(Cc1ccc(NCc2ccc(OCCCN3CCOc4ccccc43)cc2)cc1)C(=O)O (stereo not shown) [Example 23, 2-Ethoxy-3-[4-{4-(3-(3,4-dihydro-2H-benzo[b][1,4]oxazin-4-yl)propyloxy)benzyl}aminophehyl]propanoic acid arginine salt]
hPPARα
  PPARα: 4.2
hPPARγ
  PPARγ: 4.4

## CCOC(Cc1ccc(NCCCN2CCSc3ccccc32)cc1)C(=O)O (stereo not shown) [Example 27, 2-Ethoxy-3-[4-{3-3,4-dihydro-2H-benzo[b][1,4]thiazin-4-yl)propylamino}phenyl]propanoic acid arginine salt]
hPPARα
  PPARα: 4.3
hPPARγ
  PPARγ: 3.5

Reference: US7365064B2, “Benzoxazine and benzothiazine derivatives and pharmaceutical compositions containing them” (Dr. Reddy's Laboratories Limited, priority 2001, dated 2008)
